The subject of data set [1] is orthotopic human breast MDA-MB-231-RFP primary tumor. The data set can be described thus: Whole-body NIR fluorescence imaging of accumulation in orthotopic MDA-MB-231-RFP tumor. The class given is in vivo, CD-1 nude female mice. The following applies: for accumulation in the tumor (NIR fluorescence): 15 mg/kg i.v. The method, then: RFP fluorescence, in units of photons/sec, was detected using 525/50 nm and 612/75 nm filter sets for excitation and emission, respectively, with one second integration time. NIR fluorescence of the different photosensitizers, in units of photons/sec, was detected using 680/30 nm and 847/75 nm filter sets for excitation and emission, respectively, at an integration time of five seconds. Background fluorescence for all quantitative analyses was calculated by recording the average fluorescence (photons/sec)/cm^2 from three animals in three different areas around and within the tumor of untreated animals provided with a similar diet for three days before measurements. Drug accumulation was determined following i.v. administration of molar equivalents of the photosensitizer to the tail vein of mice fed with a chlorophyll-free, purified diet for three days before administration (in order to reduce skin and food autofluorescence). Before imaging, mice were anesthetized by intraperitoneum injection of a 30 μl mixture of 85:15 ketamine:xylazine.
In order to study the accumulation of the photosensitizer in primary mammary tumors, the MDA-MB-231-RFP cells (4×10^6) were implanted orthotopicaly in the mammary pad of the mice. Tumors developed to the wanted size, bigger than 1 cm^3, within 3-4 weeks.
Tumor imaging main filter set comprised: excitation filter 500-550 nm, emission filter 575-650 nm; Background filter set for subtraction the tissue auto fluorescence: excitation filter 460-490 nm, emission filter 575-650 nm. Photosensitizer imaging main filter set: excitation filter 665-695 nm, emission filter 810-875 nm.
Images were taken at these time points post drug injection: 15 min, 1, 2, 3, 4.5, 6, 7.5, 9, 24 hr, 2, 3, 4, 5, 6, 7 days.

The test system of data set [2] is large MDA-MB-231-RFP tumors. The data set can be described thus: Biodistribution and pharmacokinetics (fluorescence of tissue extracts) in MDA-MB-231-RFP tumor-bearing mice. Format: in vivo, CD-1 nude female mice. The procedure:
Mammary fat pads (left, bottom nipple) of female mice were inoculated with harvested MDA-MB-231-RFP human breast cancer cells (4×10^6 in […] saline). Tumors were classified as ‘small’ (˜100 mm^3) at one to two weeks from time of cell injection, or ‘large’ after three to four weeks (necrotic tumors, 250 to 500 mm^3). To avoid tumor burden, mice were sacrificed (cervical dislocation) when tumor size reached 10% of body weight or at 90 days post-implantation. External caliper measurements, length (L), width (W) and depth (D) were used to calculate in vivo tumor volume according to the formula: V=L/2·W/2·D/2·π·4/3.
Anesthetized mice were i.v. injected (tail vein) with the different photosensitizer (pigment) conjugates (control group: untreated). The mice were sacrificed at indicated time points and samples of the indicated organs and tissues (blood, tumor, intestine, liver, spleen, kidneys, testies, heart, lung, brain, skin, muscle and fat) were placed in pre-weighted vials and immediately frozen and stored at −20° in the dark until analyzed. Three methods were used for sample preparation: (1) Each sample was thawed and homogenized in DDW (1:10 w/v). Aliquots of the homogenate (500 μl) were lyophilized in Eppendorf test tubes. Then, 60 μl of HNO3 (70%, TraceSelect, Fluka) were added to each dry sample, incubated for 1 h at 90° C. and diluted with DDW to 3 ml. (2) Each sample was diluted (1:2 w/v) in HNO3 (70%, TraceSelect, Fluka). The samples were sonicated for 30 min in boiled water, and left for at least 48 h at room temperature. (3) Applied for assessment of non-metalated conjugates. Each sample was thawed and homogenized in methanol (100 mg tissue/ml) and extracted the next morning by centrifugation (13,000×g, five minutes) at room temperature. In methods (1) and (2), 140 μl from each sample was added to 3.36 ml DDW to give total volume of 3.5 ml and incubated for 1 h at 90° C. Pd concentrations were determined by ICP-MS. According to method (3), the supernatants were diluted in methanol by a factor of two and the drug concentration was determined by fluorescence measurements (Varian-Cary Eclipse spectrofluorimeter, Palo Alto, Calif., USA) at 750 nm (peak values). Drug concentrations were interpolated from a fluorescence calibration curve, based on predetermined drug concentrations using absorption spectroscopy.

The test system of data set [3] is H5V endothelial cells. The data set can be described thus: Phototoxicity assay (Neutral Red cell viability after illumination). The class given is cell-based, mouse.
Experimental: The light source for in vitro studies was home-built 100-W halogen lamp equipped with a high-pass filter (>650 nm, Safelight filter 1A Eastman Kodak Co., Rochester, N.Y., USA) and a 4-cm water filter. The lamp was used to illuminate (20 mW/cm^2/10 min (12 J/cm^2)) the culture plates from the bottom at room temperature in a dark room.
To determine the pigment photodynamic efficacy in vitro under standard conditions, cells were cultured in 96-well plates and preincubated for 15 or 90 min at 37° C. or 4° C., according to the indicated experiment protocol, with 0-25 μM conjugated or non-conjugated photosensitizer in different media conditions (culture medium DMEM/F12; 10% FCS in medium or 10 μM BSA in medium) in the absence or presence of excess free peptide (100 fold up to 1 mM). The cells were washed and illuminated (20 mW/cm^2 for 10 min). Plates were placed back in the culture incubator for 24 h. Cell survival was determined using Neutral Red cell viability assay. Cell survival was calculated as the percent of the dye accumulated in the untreated controls. […] Three kinds of controls were used: (i) light control: cells illuminated in the absence of pigments; (ii) dark control: cells treated with pigments but kept in the dark; and (iii) untreated cells that were kept in the dark.
Following photosensitization and a 24-h incubation period (37° C.), cell survival was determined by Neutral Red (Fluka Chemie, Buchs, Switzerland) accumulation. After subtraction of assay blanks, net optical density (570 nm) was computed as the average value of triplicates determinations. Cell survival was calculated as the percent of the dye accumulated in the untreated controls.
H5V cells were incubated for 90 min at 37° C. with 0-25 μM of conjugate 23 or compound 10 in different media conditions, illuminated and their survival was determined using Neutral Red viability assay as described in Materials and Methods.
Targeted phototoxicity is defined as one inhibited by the free ligand. Thus, further experiments attempted to block phototoxicity by administration of the free cycloRGDfK, which competes for the cellular binding of conjugate 23. H5V cells were incubated for 90 min at 37° C. with 0-25 μM of compound 10 or conjugate 23 in different media (10% FCS in medium or 10 μM BSA in medium) in the absence or presence of free excess cycloRGDfK (100-fold up to 1 mM). The cells were illuminated and cell survival was determined using Neutral Red viability assay, as described above.
In order to test the endocytosis theory and since the endocytic process is time- and temperature-dependent, H5V cells were incubated at 37° C. and 4° C. for 15 min with 0-20 μM of conjugate 23 in medium containing 10% FCS, in the presence or absence of excess cycloRGDfK (100-fold up to 1 mM). Cells were illuminated and their survival was determined as described above.
The phototoxicity of conjugate 24 was determined by monitoring the survival of cultured H5V endothelial cells following PDT. H5V cells were incubated for 2 hours at 37° C. with 0-25 μM conjugate 24 in culture medium DMEM/F12 with 10% FCS. The cells were illuminated and their survival was determined as described above.
Cells were incubated for 90 min at 37° C. in the presence of 0-20 μM conjugate 11 or compound 8 in 10 μM BSA in medium, illuminated and their survival was determined as described above.
Data set [4] can be described thus: Solubilization for in vitro experiments (water solubility). Format: physicochemical. The procedure: Compound 24 was dissolved in 100% DMSO before use and diluted in saline to a final DMSO concentration of 5% v/v.
For data set [5], the system named is MLS ovarian carcinoma. The data set can be described thus: Fluorescence imaging, MLS ovarian carcinoma. The conditions noted are these: 8 mg/kg i.v. Format: in vivo, mice. The procedure: Conjugate 26 (8 mg/kg) was i.v. injected into animals bearing MLS ovarian carcinoma. Images on IVIS were taken after 8 and 14 hours.
Data set [6] concerns human mammary cancer MDA-MB-231-RFP xenografts. The data set can be described thus: In vivo PDT of MDA-MB-231-RFP xenografts. More on the design: species or system CD-1 nude male mice. The following applies: 7.5 mg/kg i.v. The method, then:
For the PDT experiments, MDA-MB-231 RFP cells (4×10^6) were implanted subcutaneously on the backs of the mice and tumors developed to the treatment size (6-8 mm) within 2-3 weeks.
The tumors were illuminated for 10 min. The drug light interval used was 8 hr post drug injection. Transdermal illumination through the mouse skin with 755 nm diode laser at 100 mW/cm^2 (CeramOptec, Germany) was used. After the treatment, the mice were returned to the cage. […] In the light control group, the mice were illuminated for 10 min with 100 mW/cm^2. During the first 2 days post PDT, as needed, the mice received analgesia (2.5 mg/kg Flunexin daily) and 3 days Oxycode in the drinking water. The end point of animal survival is when the size of the tumor reaches 10% of animal weight. Mice are sacrificed at this time (up to 90 days) by cervical dislocation.
FIGS. 35A-35B show two representative examples to local response of human MDA-MB-231-RFP to PDT. […] 35A—Photographs taken from day 0 (before treatment) and after treatment at 1, 4, 7, 12 and 90 days. […] 35B—In vivo whole-body red fluorescence imaging of CD-1 nude male mice bearing MDA-MB-231-RFP orthotopic tumor.

Data set [7] concerns MDA-MB-231 breast tumor. The data set can be described thus: Biodistribution (Cu by ICP-MS) in mice bearing MDA-MB-231 breast tumor. The class given is in vivo, female CD-1 nude mice. The method, then:
The biodistribution of Cu-conjugate 15 was determined in female CD-1 nude mice of 6-8 weeks-old, weighing 20-23 g and bearing 6-9-mm^3 tumors of human adenocarcinoma cells obtained from breast tissue (MDA-MB-231 cells). The conjugate (30 mg/ml in 5% DMSO/PBS) was injected to the tail vein, and the animals were sacrificed in selected time points. Cu concentrations were determined by ICP-MS as described in Material and Methods.

In data set [8] the test system is CT26luc colon cancer. The data set can be described thus: In vivo PDT (VTP) of CT26luc colon cancer. The following applies: i.v. injected and illuminated after 8 hours. More on the design: species or system CD-1 nude male mice. The procedure:
CD-1 nude male mice bearing the different tumor xenografts were anesthetized and 24 (5-24 mg/kg body weight) or 8 (9 mg/kg body weight) were i.v. injected via the tail vein. The tumors were trans-cutaneously illuminated after 3.5, 6, 8, 12 and 24 hours for 5-30 min at light doses of 30-360 J/cm^2. Intensity of illumination: 100-200 mW/cm^2. After treatment, the mice were returned to the cage. The mice were considered cured if tumor free for 90 days after treatment. Mice were euthanized when the tumor diameter reached 15 mm. […] (5) Mixture of 8 and cycloRGDfK: the mice were i.v. injected with mixture of 8 with cycloRGDfK and illuminated after indicated time point. (6) cycloRGDfK alone: the mice were i.v. injected with cycloRGDfK and illuminated after indicated time point. Images were taken at indicated time post PDT.
FIGS. 32A-32F show the therapeutic results of applying 15 mg/kg, 10 min illumination (60 J/cm^2), 8 hours post injection of conjugate 24 to mice bearing CT26luc tumors (bolded protocol in Table 5). 32A—conjugate 24 was i.v. injected 15 mg/kg, 10 min illumination (60 J/cm^2) 8 hours post injection; 32B—overlaid images taken after i.p. injection of luciferin to the mouse described in 32A, using the IVIS system. The first image is black and white, which gives the photograph of the animal. The second image is color overlay of the emitted photon data. […]

This is an account of results in patent US10689415B2, “Conjugates of RGD peptides and (bacterio)chlorophyll photosensitizers” (YEDA RESEARCH AND DEVELOPMENT COMPANY LTD., priority 2006, dated 2020).

In the case of “3^1-oxo-15-methoxycarbonylmethyl-Rhodobacteriochlorin 13^1-(2-sulfoethyl)amide potassium salt [Compound 25, reference compound]”, in data set [1] (9 mg/kg i.v., large necrotic tumors, one hour post injection), the specific tumor fluorescence result is listed as “No specific tumor fluorescence”. Moreover, in data set [2] (9 mg/kg i.v.), the “accumulation in the tumor (tissue extracts)” value is given as “no accumulation of 25 in the tumor at any time longer than one hour post administration”.
Turning to “Palladium 3-oxo-15-methoxycarbonylmethyl-Rhodobacteriochlorin-13^1-(2,3-dihydroxypropyl)amide potassium salt [Compound 10]”, the LD50 is 3.5 to 5 µM in data set [3] (10 μM BSA in medium (90 min, 37° C.)); 5 µM in data set [3] (10 μM BSA in medium (90 min, 37° C.), with free peptide in excess (cycloRGDfK)); 5 to 7 µM in data set [3] (10% FCS (90 min, 37° C.)); 5 µM in data set [3] (10% FCS (90 min, 37° C.), with free peptide in excess (cycloRGDfK)); 7 µM in data set [3] (culture medium (90 min, 37° C.)). Further, the “influence of excess cycloRGDfK on phototoxic effects” value in data set [3] (90 min, 37° C., 100-fold up to 1 mM) was “not influenced by the presence of excess cycloRGDfK”. Besides, the phototoxic effects result in data set [3] (different media, 90 min, 37° C., 0-25 μM) was “light- and drug concentration-dependent”. In addition, in data set [4], the water solubility result was “Water insoluble”.
For “3^1-oxo-15-methoxycarbonylmethyl-Rhodobacteriochlorin 13^1-(2-sulfoethyl)amide-17^3-(GRGDSP)amide potassium salt [Conjugate 26]”, the “accumulation (fluorescence)” value in data set [5] (8 hours) is “did not present accumulation”; in data set [5] (14 hours), “a high level of fluorescence was observed in tumor and liver areas”.
Regarding “3^1-oxo-15-methoxycarbonylmethyl-Rhodobacteriochlorin 13^1-(2-sulfoethyl)amide-17^3-(cycloRGDfK)amide potassium salt [Conjugate 13]”, the “whole-body red fluorescence (tumor) signal after PDT” value in data set [6] (90 days after treatment) is “No signal was detected 90 days after treatment”. Moreover, the “local tumor response to PDT” value in data set [6] (illuminated 8 h later, 755 nm, 100 mW/cm^2, 10 min) is “after 90 days the wound healed and the animal was cured”. Further, in data set [1] (15 min to 24 hr post injection, tumor size ~1 cm^3, potassium salt), the “accumulation in the tumor (NIR fluorescence)” value is “no specific accumulation in the tumor during the first 24 hours”. Also, the “accumulation in the tumor (NIR fluorescence)” value in data set [1] (day 1 to 6 post injection) was “reaching peak concentration specifically in the tumor from day 2 post injection”. In data set [2] (15 mg/kg i.v.), the “peak concentration in the tumors” value is 11 μg drug/gr tumor tissue, the “peak tumor level as share of the initial drug dose” value is reported as “about 3.0%”, the “time of peak concentrations in the tumors” value is “eight hours post-injection” and the “time to clear to nearly background levels in normal tissues” value was “less than 72 hours”. Moreover, the “time of peak levels in the normal tissues examined” value in data set [2] (15 mg/kg i.v., blood, liver, kidney) is “less than five minutes post-injection”.
As for “Copper(II) 3^1-oxo-15-methoxycarbonylmethyl-Rhodobacteriochlorin 13^1-(2-sulfoethyl)amide-17^3-(cycloRGDfK)amide potassium salt [Conjugate 15]”, the “tumor intensity in comparison with surrounding normal tissue” value in data set [7] (at peak) was “about 3 fold”. Further, in data set [7] (i.v. tail vein), the “time of peak accumulation in tumor after injection” value was in the range of 8 to 12 h.
Consider `N=C(N)NCCC[C@@H]1NC(=O)[C@H](CCCCN)NC(=O)[C@@H](Cc2ccccc2)NC(=O)[C@H](CC(=O)O)NC(=O)CNC1=O` [cycloRGDfK], for which the “PDT effect of controls” value in data set [8] was “no PDT effect”. Further, the water solubility result in data set [4] is listed as “Water insoluble”.
